Measured values taken from US7285282B2, “Mucin peptide with immunoenhancing properties” (University of Miami, priority 2001, dated 2007).
Where no end group is shown, it is not given here.

Assays:
[1] = system: DA-3/sec tumor targets; assay: Splenocyte cytotoxicity against DA-3/sec targets after in vitro MUC1/sec peptide; assay type: cell-based; details: peptide added in vitro for 5 days to splenocytes of normal and D1-DMBA-3 tumor bearing mice, FIG. 17
[2] = Toxicity in animals injected with the peptide; details: in vivo
[3] = system: YAC-1; assay: NK cell assay, splenocytes pretreated with IEP, YAC-1 targets; assay type: cell-based, BALB/c mice; details: 10 μg IEP, 30-45 minutes pretreatment, 4-hour assay, FIG. 18
From the text: As mentioned above, there is a unique 11 amino acid peptide present on the C-terminus of the MUC1/sec protein, but not on the MUC1/TM protein. […] We investigated the possible effects of the peptide on the cytotoxicity reaction. We tested it on yet another tumor model, i.e. the D1-DMBA-3 mammary tumor bearing mice. The DA-3 cell line was originally derived from this tumor, which is routinely passaged in vivo in our laboratory in the syngeneic BALB/c mice. […] The ability of this peptide to stimulate immune cells in a NK cell assay was tested. […] Therefore, to test for immunomodulatory activity of the immunoenhancing peptide (IEP), BALB/c splenocytes were pretreated for 30-45 minutes with 10 μg IEP and subsequently, chromium-labeled YAC-1 or EL-4 targets were added in a 4-hour assay as previously described (11).

[4] = system: DA-3/sec targets; assay: Effect of perforin inhibitor or anti-Fas antibody on killing by DA-3/sec primed splenocytes; assay type: cell-based, mice; details: FIG. 14, FIG. 15

| Compound | Cytotoxicity against DA-3/sec tumor targets [1] | Toxicity in injected animals [2] | Cytotoxicity of normal splenocytes against YAC-1 [3] | Effect on killing of DA-3/sec targets by primed splenocytes [4] |
| --- | --- | --- | --- | --- |
| VSIGLSFPMLP [IEP] | significant levels of cytotoxicity | No toxicity has been detected | elevation of cytotoxic levels |  |
| C/C=C/[C@H]1O[C@@](O)([C@@H](C)[C@H](O)[C@H](C)[C@H]2OC(=O)/C(OC)=C/C(C)=C/[C@@H](C)[C@@H](O)[C@@H](CC)[C@@H](O)[C@H](C)C/C(C)=C/C=C/[C@@H]2OC)C[C@@H](O[C@H]2C[C@@H](O)[C@H](OC(N)=O)[C@@H](C)O2)[C@@H]1C [Concanamycin A] |  |  |  | effectively blocked killing of DA-3/sec targets in a dose-dependent manner |
